Test results as given in patent publication US20250179057A1, “MEK IMMUNE ONCOLOGY INHIBITORS AND THERAPEUTIC USES THEREOF” (Immuneering Corporation, priority 2022, published 2025).
Structures can show the parent of a compound that is named as a salt. Where two headings read alike, the source gives them in different places.

Assays:
[1] = Mouse pharmacokinetics (oral cassette dosing), plasma; type: in vivo; settings: BALB/c immunocompetent mice, 5 mg/kg p.o.
Procedure: Female mice (BALC/c) received a single dose (3 mice/treatment) of vehicle (10% 1N HCl:90% [20% […]) and at 0.5, 1, 2, 4, 8, 12 and 24-hour post dose humanely euthanized.
Blood was obtained through cardiac puncture into K+EDTA tubes, mixed by inversion and centrifuged to obtain the plasma. Blood will be kept on ice or at approximately 4° C. prior. Centrifugation will take place within 30 minutes of blood collection affording plasma samples. Plasma samples will be frozen as soon as possible after centrifugation and stored at −80° C. until analysis. All samples will be analysed by means of LC-MS/MS. Method development for bioanalysis will be performed by pharmacokinetics Department of Crown Bioscience (Taicang) Inc. using LC-MS/MS analysis (using Waters HSS T3 2.1×50 mm (1.8 um) LC column, and an API-4000 Electrospray MS unit). The results of a kinetic solubility (free base) study are represented in Table 19.

CYP1A2 = biological target: T1, CYP1A2 (Homo sapiens, UniProt P05177); assay: CYP450 panel inhibition in human liver microsomes, 1A2 (phenacetin); settings: for inhibition at 30 min, 10 µM: human, microsomes, pH 7.4
T1 sequence (P05177 1-516): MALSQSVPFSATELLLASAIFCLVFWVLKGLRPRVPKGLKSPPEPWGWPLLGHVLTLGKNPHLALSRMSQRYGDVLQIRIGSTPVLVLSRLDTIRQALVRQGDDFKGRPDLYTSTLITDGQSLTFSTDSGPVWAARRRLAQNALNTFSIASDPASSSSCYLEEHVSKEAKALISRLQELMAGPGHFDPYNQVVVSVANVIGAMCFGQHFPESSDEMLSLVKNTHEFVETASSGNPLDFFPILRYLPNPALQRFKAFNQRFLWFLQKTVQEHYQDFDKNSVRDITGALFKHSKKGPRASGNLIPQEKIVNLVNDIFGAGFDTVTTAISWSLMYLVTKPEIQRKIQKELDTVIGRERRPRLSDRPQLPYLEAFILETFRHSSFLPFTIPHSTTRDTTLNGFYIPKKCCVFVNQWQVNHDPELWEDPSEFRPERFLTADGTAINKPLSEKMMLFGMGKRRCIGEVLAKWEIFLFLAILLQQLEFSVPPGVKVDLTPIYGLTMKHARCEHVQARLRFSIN

[2] = Hepatocyte stability, beagle dog; type: in vitro ADME; settings: 0.5 million cells/ml; for half-life at 2 μM: beagle dog hepatocytes; for CLint scaled at 2 μM: beagle, dog, hepatocytes
Procedure: (§1) In this study, human, cynomolgus monkey, beagle dog, wistar hannover rat, and balb/c mouse hepatocyle stability was determined.

[3] = Hepatocyte stability, wistar hannover rat; type: in vitro ADME; settings: 0.5 million cells/ml; for CLint scaled at 2 μM: Wistar Hannover, rat, hepatocytes; for half-life at 2 μM: wistar hannover rat hepatocytes
Procedure: as §1

[4] = Hepatocyte stability, cynomolgus monkey; type: in vitro ADME; settings: 0.5 million cells/ml; for half-life at 2 μM: cynomolgus monkey hepatocytes; for CLint scaled at 2 μM: cynomolgus monkey, hepatocytes
Procedure: as §1

CYP2C8 = biological target: T2, CYP2C8 (Homo sapiens, UniProt P10632); assay: CYP450 panel inhibition in human liver microsomes, 2C8 (amodiaquine); settings: 10 μM, substrate amodiaquine
T2 sequence (P10632 1-490): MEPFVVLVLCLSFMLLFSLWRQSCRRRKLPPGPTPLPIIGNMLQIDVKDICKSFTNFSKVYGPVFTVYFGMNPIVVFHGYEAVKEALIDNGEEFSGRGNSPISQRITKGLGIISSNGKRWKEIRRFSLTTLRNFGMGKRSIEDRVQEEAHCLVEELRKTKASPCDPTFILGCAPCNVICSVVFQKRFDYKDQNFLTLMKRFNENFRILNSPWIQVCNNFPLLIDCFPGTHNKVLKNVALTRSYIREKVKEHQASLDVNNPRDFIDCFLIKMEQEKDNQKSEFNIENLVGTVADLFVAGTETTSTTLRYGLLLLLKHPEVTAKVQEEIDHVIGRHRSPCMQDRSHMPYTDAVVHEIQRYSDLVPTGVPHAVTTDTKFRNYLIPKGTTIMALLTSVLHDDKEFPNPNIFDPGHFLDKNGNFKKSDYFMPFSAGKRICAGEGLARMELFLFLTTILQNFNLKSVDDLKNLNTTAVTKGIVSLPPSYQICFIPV

[5] = female, mouse, read-out: AUC0-t
[6] = read-out: CLint (L/hr/kg) (converted)

Q: Which AUC(0-t) [1, 5] does the source give for `CCN(C)Cc1c(Cc2cccc(NS(=O)(=O)NC)c2Cl)c(=O)oc2cc(OC(=O)N(C)C)ccc12` [Compound 245, 3-(2-chloro-3-((N-methylsulfamoyl)amino)benzyl)-4-((ethyl(methyl)amino)methyl)-2-oxo-2H-chromen-7-yl dimethylcarbamate] here?
A: The AUC(0-t) was 0.154 µg·h/mL.

Q: What about the Cmax ([1]; female, mouse, read-out: Cmax) of the same compound?
A: Its Cmax is 0.384 µg/mL.

Q: What about the Tmax ([1]; female, mouse, read-out: Tmax) of the same compound?
A: Its Tmax is 4.98 min.

Q: What about the inhibition at 30 min, 10 µM (CYP1A2) of the same compound?
A: The inhibition at 30 min, 10 µM was -0.3%.

Q: And the half-life at 2 μM [2]?
A: Its half-life at 2 μM is 57.2 min.

Q: What about the CLint scaled at 2 μM [2, 6] of the same compound?
A: The CLint scaled at 2 μM was 7.81 L/h/kg.

Q: And the CLint scaled at 2 μM ([2]; read-out: CLint (mL/min/kg))?
A: The CLint scaled at 2 μM was 7.8 L/h/kg.

Q: What about the CLint scaled at 2 μM [3, 6] of the same compound?
A: The CLint scaled at 2 μM was 5 L/h/kg.

Q: What about the CLint scaled at 2 μM ([3]; read-out: CLint (mL/min/kg)) of the same compound?
A: The CLint scaled at 2 μM was 5 L/h/kg.

Q: And the half-life at 2 μM [3]?
A: Its half-life at 2 μM is 44.9 min.

Q: And the half-life at 2 μM [4]?
A: Its half-life at 2 μM is 24.4 min.

Q: What about the CLint scaled at 2 μM [4, 6] of the same compound?
A: Its CLint scaled at 2 μM is 13.8 L/h/kg.

Q: What about the CLint scaled at 2 μM ([4]; read-out: CLint (mL/min/kg)) of the same compound?
A: Its CLint scaled at 2 μM is 13.8 L/h/kg.

Q: Which results are given for `CNS(=O)(=O)Nc1cccc(Cc2c(CN(C)C)c3ccc(OC(=O)N(C)C)cc3oc2=O)c1Cl` [Compound 274, 3-(2-chloro-3-((N-methylsulfamoyl)amino)benzyl)-4-((dimethylamino)methyl)-2-oxo-2H-chromen-7-yl dimethylcarbamate]?
A: AUC(0-inf) ([1]; female, mouse): 0.396 µg·h/mL; half-life ([1]; female, mouse): 18 min; AUC(0-t) [1, 5]: 0.392 µg·h/mL; Cmax ([1]; female, mouse, read-out: Cmax): 0.796 µg/mL; Tmax ([1]; female, mouse, read-out: Tmax): 4.98 min; inhibition at 30 min, 10 µM (CYP1A2): -3.4%; half-life at 2 μM [2]: 127 min; CLint scaled at 2 μM [2, 6]: 3.52 L/h/kg; CLint scaled at 2 μM ([2]; read-out: CLint (mL/min/kg)): 3.52 L/h/kg; CLint scaled at 2 μM [3, 6]: 2.84 L/h/kg; CLint scaled at 2 μM ([3]; read-out: CLint (mL/min/kg)): 2.84 L/h/kg; half-life at 2 μM [3]: 79 min; half-life at 2 μM [4]: 59.1 min; CLint scaled at 2 μM [4, 6]: 5.7 L/h/kg; CLint scaled at 2 μM ([4]; read-out: CLint (mL/min/kg)): 5.69 L/h/kg

Q: Which inhibition at 30 min, 10 µM (CYP1A2) does the source give for `CNS(=O)(=O)Nc1cccc(Cc2c(CN3CCNCC3)c3ccc(OC(=O)N(C)C)cc3oc2=O)c1Cl` [Compound 246, 3-(2-chloro-3-((N-methylsulfamoyl)amino)benzyl)-2-oxo-4-(piperazin-1-ylmethyl)-2H-chromen-7-yl dimethylcarbamate hydrochloride] here?
A: The inhibition at 30 min, 10 µM was -3.7%.

Q: And the half-life at 2 μM [2]?
A: Its half-life at 2 μM is 364 min.

Q: What about the CLint scaled at 2 μM [2, 6] of the same compound?
A: Its CLint scaled at 2 μM is 1.23 L/h/kg.

Q: And the CLint scaled at 2 μM ([2]; read-out: CLint (mL/min/kg))?
A: Its CLint scaled at 2 μM is 1.23 L/h/kg.

Q: What about the CLint scaled at 2 μM [3, 6] of the same compound?
A: The CLint scaled at 2 μM was 1.25 L/h/kg.

Q: And the CLint scaled at 2 μM ([3]; read-out: CLint (mL/min/kg))?
A: Its CLint scaled at 2 μM is 1.25 L/h/kg.

Q: And the half-life at 2 μM [3]?
A: Its half-life at 2 μM is 180 min.

Q: What about the half-life at 2 μM [4] of the same compound?
A: Its half-life at 2 μM is 405 min.

Q: What about the CLint scaled at 2 μM [4, 6] of the same compound?
A: The CLint scaled at 2 μM was 0.832 L/h/kg.

Q: What about the CLint scaled at 2 μM ([4]; read-out: CLint (mL/min/kg)) of the same compound?
A: The CLint scaled at 2 μM was 0.834 L/h/kg.

Q: Which “AUC0-∞” value [1] does the source give for `CNS(=O)(=O)Nc1cccc(Cc2c(CN(C)C)c3cc(F)c(OC(=O)N(C)C)cc3oc2=O)c1F` [Compound 25] here?
A: Its value is 1.426 µg·h/mL.

Q: And the “AUC(0-t)” value [1]?
A: Its value is 1.336 µg·h/mL.

Q: And the “Cmax” value [1]?
A: Its value is 1.037 µg/mL.

Q: What about the “T1/2” value [1] of the same compound?
A: The value was 66 min.

Q: What about the “Tmax” value [1] of the same compound?
A: The value was 4.98 min.

Q: What about the “CYP-1A2 (Phenacetin) mean percentage CYP inhibition” value (CYP1A2; human liver microsomes, 10 μM, substrate phenacetin) of the same compound?
A: Its value is 7.9%.

Q: And the “CYP-2C8 (Amodiaquine) mean percentage CYP inhibition” value (CYP2C8)?
A: The value was 77.2%.

Q: For `CCN(C)Cc1c(Cc2cccc(NS(=O)(=O)NC)c2F)c(=O)oc2cc(OC(=O)N(C)C)c(F)cc12` [Compound 238], which AUC(0-inf) ([1]; female, mouse) is on record?
A: The AUC(0-inf) was 0.434 µg·h/mL.

Q: What about the half-life ([1]; female, mouse) of the same compound?
A: Its half-life is 60 min.

Q: What about the AUC(0-t) [1, 5] of the same compound?
A: The AUC(0-t) was 0.416 µg·h/mL.

Q: And the Cmax ([1]; female, mouse, read-out: Cmax)?
A: The Cmax was 0.857 µg/mL.

Q: What about the Tmax ([1]; female, mouse, read-out: Tmax) of the same compound?
A: Its Tmax is 4.98 min.

Q: And the half-life at 2 μM [2]?
A: The half-life at 2 μM was 71.2 min.

Q: What about the CLint scaled at 2 μM [2, 6] of the same compound?
A: Its CLint scaled at 2 μM is 6.28 L/h/kg.

Q: And the CLint scaled at 2 μM ([2]; read-out: CLint (mL/min/kg))?
A: Its CLint scaled at 2 μM is 6.3 L/h/kg.

Q: What about the CLint scaled at 2 μM [3, 6] of the same compound?
A: Its CLint scaled at 2 μM is 3.97 L/h/kg.

Q: What about the CLint scaled at 2 μM ([3]; read-out: CLint (mL/min/kg)) of the same compound?
A: Its CLint scaled at 2 μM is 3.97 L/h/kg.

Q: And the half-life at 2 μM [3]?
A: The half-life at 2 μM was 56.6 min.

Q: What about the half-life at 2 μM [4] of the same compound?
A: The half-life at 2 μM was 57.2 min.

Q: What about the CLint scaled at 2 μM [4, 6] of the same compound?
A: The CLint scaled at 2 μM was 5.89 L/h/kg.

Q: And the CLint scaled at 2 μM ([4]; read-out: CLint (mL/min/kg))?
A: Its CLint scaled at 2 μM is 5.89 L/h/kg.

Q: Which AUC(0-inf) ([1]; female, mouse) does the source give for `CNS(=O)(=O)Nc1cccc(Cc2c(CN3CCNCC3)c3cc(Cl)c(OC(=O)N(C)C)cc3oc2=O)c1Cl` [Compound 256, 6-chloro-3-(2-chloro-3-((N-methylsulfamoyl)amino)benzyl)-2-oxo-4-(piperazin-1-ylmethyl)-2H-chromen-7-yl dimethylcarbamate hydrochloride] here?
A: The AUC(0-inf) was 0.0283 µg·h/mL.

Q: What about the AUC(0-t) [1, 5] of the same compound?
A: Its AUC(0-t) is 0.0195 µg·h/mL.

Q: What about the Cmax ([1]; female, mouse, read-out: Cmax) of the same compound?
A: Its Cmax is 0.0083 µg/mL.

Q: What about the Tmax ([1]; female, mouse, read-out: Tmax) of the same compound?
A: Its Tmax is 30 min.

Q: And the inhibition at 30 min, 10 µM (CYP1A2)?
A: The inhibition at 30 min, 10 µM was 6.2%.

Q: What about the half-life at 2 μM [2] of the same compound?
A: The half-life at 2 μM was 179 min.

Q: What about the CLint scaled at 2 μM [2, 6] of the same compound?
A: Its CLint scaled at 2 μM is 2.5 L/h/kg.

Q: What about the CLint scaled at 2 μM ([2]; read-out: CLint (mL/min/kg)) of the same compound?
A: The CLint scaled at 2 μM was 2.5 L/h/kg.

Q: And the CLint scaled at 2 μM [3, 6]?
A: Its CLint scaled at 2 μM is 2.12 L/h/kg.

Q: And the CLint scaled at 2 μM ([3]; read-out: CLint (mL/min/kg))?
A: The CLint scaled at 2 μM was 2.12 L/h/kg.

Q: And the half-life at 2 μM [3]?
A: The half-life at 2 μM was 105 min.

Q: What about the half-life at 2 μM [4] of the same compound?
A: Its half-life at 2 μM is 135 min.

Q: And the CLint scaled at 2 μM [4, 6]?
A: The CLint scaled at 2 μM was 2.5 L/h/kg.

Q: What about the CLint scaled at 2 μM ([4]; read-out: CLint (mL/min/kg)) of the same compound?
A: Its CLint scaled at 2 μM is 2.5 L/h/kg.
